Test results: the supplement of paper PMC10883282
Structures can show the parent of a compound that is named as a salt. ± gives the standard deviation of the averaged measurements.

System: VA-ES-BJ
Assay: relative viability vs DMSO control (72 h) (fraction); higher = more viable cells
Procedure, shortened: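 Sarcoma cell lines went into 384-well plates at densities chosen to reach 80–90% confluence. After 24 h, each well received 2.5 µl of serially diluted compound, with source plates running from 10 mM to 0.0002 mM, and the plates were kept 72 h at 37 °C, 5% CO2, alongside 0.1% DMSO vehicle and a 5 µM positive control. Relative viability was derived from ATPLite readings as percent growth and averaged over up to triplicate wells. The data were then rescaled so that 1 stands for full and 0 for none.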

Row | SMILES | relative viability (2 pM) | relative viability (5 pM) | relative viability (15 pM) | relative viability (50 pM) | relative viability (0.00014 µM) | relative viability (0.00041 µM) | relative viability (0.0012 µM) | relative viability (0.0037 µM) | relative viability (0.011 µM) | relative viability (200 fM) | relative viability (600 fM) | relative viability (0.00017 µM) | relative viability (0.00051 µM) | relative viability (0.00152 µM) | relative viability (0.00457 µM) | relative viability (0.01372 µM) | relative viability (0.04115 µM) | relative viability (0.1235 µM) | relative viability (0.3704 µM) | relative viability (1.111 µM) | relative viability (3.333 µM) | relative viability (10 µM)
1 | COc1cc2c(cc1O)CCN[C@]21CS[C@@H]2c3c(OC(C)=O)c(C)c4c(c3[C@H](COC1=O)N1[C@@H]2[C@H]2c3c(cc(C)c(OC)c3O)C[C@@H]([C@@H]1O)N2C)OCO4 [Trabectedin] | 1.096 ± 0.0079 | 1.09 ± 0.014 | 1.07 ± 0.029 | 1.01 ± 0.046 | 0.683 ± 0.012 | 0.389 ± 0.1 | 0.239 ± 0.087 | 0.183 ± 0.014 | 0.203 ± 0.018 | 1.07 ± 0.024 | 1.08 ± 0.032 |  |  |  |  |  |  |  |  |  |  | 
2 | CN1CCN(c2ccc3nc(-c4c(N)c5c(F)cccc5[nH]c4=O)[nH]c3c2)CC1 [Dovitinib] |  |  |  |  |  |  |  |  |  |  |  | 1.06 ± 0.027 | 1.06 ± 0.028 | 1.08 ± 0.044 | 1.08 ± 0.028 | 1.07 ± 0.029 | 1.06 ± 0.031 | 1.05 ± 0.025 | 0.956 ± 0.0053 | 0.738 ± 0.049 | 0.495 ± 0.021 | 0.313 ± 0.039
3 | C[C@@H]1COCCN1c1cc(-c2ccnn2C)c2ccnc(-c3ccn[nH]3)c2n1 |  |  |  |  |  |  |  |  |  |  |  | 1.02 ± 0.024 | 1.02 ± 0.03 | 1.01 ± 0.0075 | 1.05 ± 0.018 | 0.97 ± 0.07 | 0.739 ± 0.039 | 0.464 ± 0.038 | 0.212 ± 0.015 | 0.191 ± 0.0065 | 0.19 ± 0.015 | 0.173 ± 0.019
4 | Cn1cc(-c2cc3c(N4CCN(c5ncc([C@@](C)(N)c6ccc(F)cc6)cn5)CC4)ncnn3c2)cn1 [Avapritinib] |  |  |  |  |  |  |  |  |  |  |  | 1.02 ± 0.013 | 1.01 ± 0.025 | 1 ± 0.013 | 1.01 ± 0.03 | 0.998 ± 0.057 | 0.993 ± 0.023 | 0.971 ± 0.039 | 0.98 ± 0.031 | 0.975 ± 0.011 | 0.956 ± 0.034 | 0.979 ± 0.028
5 | C[C@]1(O)C[C@@H](c2nc(-c3ccc4ccc(-c5ccccc5)nc4c3)c3c(N)nccn32)C1 [Linsitinib] |  |  |  |  |  |  |  |  |  |  |  | 1.08 ± 0.025 | 1.07 ± 0.04 | 1.05 ± 0.05 | 1.06 ± 0.011 | 1.01 ± 0.02 | 0.989 ± 0.021 | 0.987 ± 0.052 | 0.966 ± 0.042 | 0.937 ± 0.05 | 0.871 ± 0.11 | 0.74 ± 0.036
6 | Cc1nc(NC(=O)N2CCC[C@H]2C(N)=O)sc1-c1ccnc(C(C)(C)C(F)(F)F)c1 [Alpelisib] |  |  |  |  |  |  |  |  |  |  |  | 1.062 ± 0.0069 | 1.03 ± 0.048 | 1.03 ± 0.022 | 0.992 ± 0.054 | 0.981 ± 0.04 | 0.94 ± 0.045 | 0.924 ± 0.045 | 0.833 ± 0.019 | 0.741 ± 0.021 | 0.61 ± 0.01 | 0.378 ± 0.011
7 | COc1cccc2c1C(=O)c1c(O)c3c(c(O)c1C2=O)C[C@@](O)(C(=O)CO)C[C@@H]3O[C@H]1C[C@H](N)[C@H](O)[C@H](C)O1 [Doxorubicin Hydrochloride] |  |  |  |  |  |  |  |  |  |  |  | 1.03 ± 0.017 | 1.06 ± 0.08 | 1.03 ± 0.05 | 0.99 ± 0.033 | 0.857 ± 0.064 | 0.629 ± 0.028 | 0.386 ± 0.016 | 0.164 ± 0.012 | 0.189 ± 0.0067 | 0.143 ± 0.035 | 0.126 ± 0.011
8 | CNC(=O)c1ccc(-c2cnc3ncc(Cc4ccc5ncccc5c4)n3n2)cc1F [Capmatinib] |  |  |  |  |  |  |  |  |  |  |  | 1.06 ± 0.068 | 1.03 ± 0.042 | 1.01 ± 0.062 | 0.943 ± 0.04 | 0.87 ± 0.016 | 0.844 ± 0.03 | 0.839 ± 0.01 | 0.844 ± 0.017 | 0.878 ± 0.059 | 0.88 ± 0.035 | 0.855 ± 0.036
9 | Cc1ccc(NC(=O)c2ccc(CN3CCN(C)CC3)cc2)cc1Nc1nc(-c2cccnc2)cs1 [Masitinib] |  |  |  |  |  |  |  |  |  |  |  | 1.08 ± 0.016 | 1.078 ± 0.0055 | 1.05 ± 0.019 | 1.06 ± 0.033 | 1.08 ± 0.022 | 1.05 ± 0.013 | 1.02 ± 0.024 | 1.01 ± 0.038 | 0.897 ± 0.02 | 0.621 ± 0.016 | 0.177 ± 0.0072
10 | C[C@@H](c1ccc2nccn2c1)n1nnc2ncc(-c3cnn(C)c3)nc21 [Volitinib] |  |  |  |  |  |  |  |  |  |  |  | 1.07 ± 0.067 | 1.07 ± 0.053 | 1.04 ± 0.062 | 1.02 ± 0.046 | 0.93 ± 0.043 | 0.868 ± 0.066 | 0.875 ± 0.03 | 0.879 ± 0.058 | 0.884 ± 0.048 | 0.873 ± 0.042 | 0.886 ± 0.048
11 | CC(C)(C)c1cc(NC(=O)Nc2ccc(-c3cn4c(n3)sc3cc(OCCN5CCOCC5)ccc34)cc2)no1 [Quizartinib] |  |  |  |  |  |  |  |  |  |  |  | 1.06 ± 0.028 | 1.06 ± 0.038 | 1.05 ± 0.019 | 1.06 ± 0.032 | 1.05 ± 0.026 | 1.05 ± 0.038 | 1.02 ± 0.059 | 1.04 ± 0.03 | 1.02 ± 0.045 | 0.947 ± 0.022 | 0.831 ± 0.032
12 | CC(C)N1CCN(Cc2cnc(-c3cc(-c4cccc5[nH]ccc45)cc4[nH]ncc34)o2)CC1 [Nemiralisib] |  |  |  |  |  |  |  |  |  |  |  | 0.985 ± 0.032 | 0.987 ± 0.045 | 0.981 ± 0.047 | 1.01 ± 0.04 | 0.96 ± 0.026 | 0.965 ± 0.041 | 0.982 ± 0.038 | 0.9285 ± 0.0062 | 0.901 ± 0.049 | 0.811 ± 0.017 | 0.655 ± 0.038
13 | C=CC(=O)N1CCC[C@@H](n2nc(-c3ccc(Oc4ccccc4)cc3)c3c(N)ncnc32)C1 [Ibrutinib] |  |  |  |  |  |  |  |  |  |  |  | 1.09 ± 0.046 | 1.08 ± 0.035 | 1.08 ± 0.089 | 1.06 ± 0.026 | 1.08 ± 0.05 | 1.09 ± 0.044 | 1.07 ± 0.068 | 1.07 ± 0.092 | 1.13 ± 0.056 | 1.1 ± 0.036 | 0.989 ± 0.013
14 | CN1CCC(COc2cnc(-c3cccc(Cn4nc(-c5cccc(C#N)c5)ccc4=O)c3)nc2)CC1 [Tepotinib] |  |  |  |  |  |  |  |  |  |  |  | 1.07 ± 0.019 | 1.06 ± 0.021 | 1.02 ± 0.033 | 1.05 ± 0.044 | 1.02 ± 0.023 | 0.943 ± 0.044 | 0.869 ± 0.021 | 0.866 ± 0.04 | 0.869 ± 0.067 | 0.845 ± 0.045 | 0.869 ± 0.041
15 | C[C@@H]1CCN(C(=O)CC#N)C[C@@H]1N(C)c1ncnc2[nH]ccc12 [Tofacitinib] |  |  |  |  |  |  |  |  |  |  |  | 1.052 ± 0.0034 | 1.07 ± 0.014 | 1.02 ± 0.037 | 1.06 ± 0.039 | 1.02 ± 0.035 | 1.02 ± 0.026 | 1.01 ± 0.019 | 1.01 ± 0.017 | 1 ± 0.036 | 0.9697 ± 0.0069 | 0.931 ± 0.018
16 | Cc1cc(Nc2ncnc3ccc(NC4=NC(C)(C)CO4)cc23)ccc1Oc1ccn2ncnc2c1 [Tucatinib] |  |  |  |  |  |  |  |  |  |  |  | 1.09 ± 0.036 | 1.058 ± 0.0029 | 1.07 ± 0.032 | 1.04 ± 0.015 | 1.02 ± 0.02 | 1.03 ± 0.043 | 1.02 ± 0.089 | 1.01 ± 0.058 | 1.03 ± 0.023 | 1.03 ± 0.049 | 1.01 ± 0.023
17 | O=C(Nc1cnn2ccc(N3CCC[C@@H]3c3cc(F)ccc3F)nc12)N1CC[C@H](O)C1 [Larotrectinib] |  |  |  |  |  |  |  |  |  |  |  | 1.05 ± 0.058 | 1.07 ± 0.037 | 1.04 ± 0.04 | 1.06 ± 0.044 | 1.04 ± 0.017 | 1.02 ± 0.046 | 1 ± 0.04 | 0.99 ± 0.022 | 1.02 ± 0.036 | 0.989 ± 0.043 | 0.994 ± 0.043
18 | C=CC(=O)N1CCC([C@@H]2CCNc3c(C(N)=O)c(-c4ccc(Oc5ccccc5)cc4)nn32)CC1 [Zanubrutinib] |  |  |  |  |  |  |  |  |  |  |  | 1.02 ± 0.011 | 1.01 ± 0.012 | 1.01 ± 0.03 | 0.996 ± 0.039 | 0.982 ± 0.029 | 1.04 ± 0.028 | 0.997 ± 0.047 | 0.998 ± 0.054 | 0.95 ± 0.025 | 0.912 ± 0.048 | 0.836 ± 0.013
19 | CO[C@H]1C[C@@H]2CC[C@@H](C)[C@@](O)(O2)C(=O)C(=O)N2CCCC[C@H]2C(=O)O[C@H]([C@H](C)C[C@@H]2CC[C@@H](OP(C)(C)=O)[C@H](OC)C2)CC(=O)[C@H](C)/C=C(\C)[C@@H](O)[C@@H](OC)C(=O)[C@H](C)C[C@H](C)/C=C/C=C/C=C/1C [Ridaforolimus] |  |  |  |  |  |  |  |  |  |  |  | 0.97 ± 0.051 | 0.889 ± 0.031 | 0.664 ± 0.016 | 0.602 ± 0.03 | 0.538 ± 0.018 | 0.509 ± 0.025 | 0.487 ± 0.03 | 0.459 ± 0.0073 | 0.48 ± 0.014 | 0.458 ± 0.026 | 0.45 ± 0.0084
